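Compound exposure: 48 hours, 5 concentrations, 96-well plates. The concentration for 50% growth inhibition is given as GI50. TGI: concentration producing complete growth inhibition.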
Assays:
Experiment in all cases: growth of human tumour cells (NCI), 48 h
HS 578T breast = tested on: HS 578T breast
LOX IMVI melanoma = tested on: LOX IMVI melanoma
MALME-3M melanoma = tested on: MALME-3M melanoma
MDA-MB-435 = tested on: MDA-MB-435
NCI-H226 lung = tested on: NCI-H226 lung
NCI-H23 lung = tested on: NCI-H23 lung
NCI/ADR-RES ovarian = tested on: NCI/ADR-RES ovarian
SF-268 CNS = tested on: SF-268 CNS
SF-539 CNS = tested on: SF-539 CNS
SNB-19 CNS = tested on: SNB-19 CNS

SMILES | GI50 (HS 578T breast) | TGI (HS 578T breast) | GI50 (LOX IMVI melanoma) | TGI (LOX IMVI melanoma) | GI50 (MALME-3M melanoma) | TGI (MALME-3M melanoma) | GI50 (MDA-MB-435) | TGI (MDA-MB-435) | GI50 (NCI-H226 lung) | TGI (NCI-H226 lung) | GI50 (NCI-H23 lung) | TGI (NCI-H23 lung) | GI50 (NCI/ADR-RES ovarian) | TGI (NCI/ADR-RES ovarian) | GI50 (SF-268 CNS) | TGI (SF-268 CNS) | GI50 (SF-539 CNS) | TGI (SF-539 CNS) | GI50 (SNB-19 CNS) | TGI (SNB-19 CNS)
N#Cc1c(NC(=O)NCc2ccccc2)sc2c1CCCC2 | 0.404 µM | > 100 µM | 0.643 µM | > 100 µM | 0.598 µM | > 100 µM | 0.215 µM | 0.595 µM | 1.3 µM | > 41.3 µM | 1.18 µM | > 26.3 µM | 0.424 µM | > 34.1 µM | 1.82 µM | > 100 µM | 0.37 µM | 4.68 µM | 0.675 µM | > 100 µM
CN(C)c1ccc(/C=C/c2ccnc3c(O)cccc23)cc1 | 0.85 µM | > 100 µM | 0.313 µM | > 100 µM | 0.847 µM | 9.43 µM | 0.455 µM | > 100 µM | 2.31 µM | > 26.8 µM | 0.511 µM | > 100 µM | 0.312 µM | – | 0.463 µM | > 100 µM | 0.344 µM | 3.33 µM | 0.395 µM | > 100 µM
COc1cccc(CCC2CCCN(c3cc(C)nc(N)n3)C2)c1 (stereo not drawn) | 0.418 µM | 16.7 µM | 0.609 µM | 7.65 µM | 0.527 µM | 14.9 µM | 0.153 µM | 0.404 µM | 1.91 µM | 19.3 µM | 0.614 µM | 14 µM | 0.394 µM | 5.9 µM | 0.643 µM | 12.5 µM | 0.277 µM | 1.15 µM | 0.521 µM | 16 µM
CCOC(=O)c1ccc2c(c1)Cc1cc([N+](=O)[O-])ccc1-2 | – | > 100 µM | – | > 100 µM | – | > 100 µM | – | > 100 µM | – | 51.2 µM | – | > 100 µM | – | 99.4 µM | – | 88 µM | – | > 100 µM | – | > 100 µM
COc1cc2nccc(Oc3ccc(NC(=O)NC4CC4)c(Cl)c3)c2cc1C(N)=O | 14.5 µM | > 86.9 µM | 70.2 µM | > 100 µM | 40.7 µM | > 100 µM | > 100 µM | > 100 µM | 1.1 µM | > 43.4 µM | 15.6 µM | > 74.6 µM | 35.2 µM | > 100 µM | 10.3 µM | 48 µM | 0.536 µM | 40 µM | 17.7 µM | 62.1 µM
COc1ccc(N=Cc2c(O)ccc3c2oc2cc(Cl)c(O)c(Cl)c23)cc1 | 4.45 µM | 23.1 µM | 15.1 µM | 53.4 µM | 3.63 µM | 21.8 µM | 11.6 µM | 43.2 µM | 13.7 µM | 41.7 µM | 12.2 µM | 42.5 µM | 12.2 µM | 50.7 µM | 6.68 µM | 29.6 µM | 7.03 µM | 30.4 µM | 13.9 µM | 79.8 µM
O=C(COc1ccc(/C=C2\COc3ccccc3C2=O)cc1)Nc1nccs1 | 2.74 µM | 9.4 µM | 2.64 µM | 7.33 µM | 16.3 µM | 36.2 µM | 3.56 µM | 18.4 µM | 14.4 µM | 29.9 µM | 11.2 µM | 25.4 µM | 24.7 µM | > 100 µM | 6.81 µM | 21.7 µM | 15 µM | 29.4 µM | 12.8 µM | 25.4 µM
O=C(O)/C=C/C(=O)N1Cc2cc3ccccc3nc2C1 | – | > 100 µM | – | > 100 µM | – | > 100 µM | – | > 100 µM | – | > 100 µM | – | > 100 µM | – | > 100 µM | – | > 100 µM | – | > 100 µM | – | > 100 µM
COC1C(CO)OC(n2c3ccccc3c3c4c(c5c6ccccc6[nH]c5c32)C(=O)NC4=O)C(O)C1O (stereo not drawn) | 0.18 µM | 0.757 µM | < 0.01 µM | 0.0352 µM | < 0.018 µM | – | 0.0633 µM | 0.901 µM | 0.0113 µM | 0.108 µM | 0.0951 µM | 1.12 µM | 1.37 µM | > 43.7 µM | 0.0189 µM | 0.586 µM | < 0.01 µM | 0.0359 µM | 0.0277 µM | 6.64 µM
CSC1=Nc2c(c(C)c(-c3ccccc3)n2CCCN2CCCCC2)C2=NC(=O)C[C@H](C)N12 | 2.04 µM | 10.4 µM | 3.16 µM | 13.4 µM | 2.63 µM | 9.61 µM | 2.97 µM | 10.8 µM | 4.5 µM | > 79.7 µM | 3.08 µM | > 46.4 µM | 20 µM | 79.1 µM | 3.96 µM | 21.9 µM | 6.07 µM | 70.4 µM | 3.08 µM | > 94.6 µM
CCCCCCCC/C=C/CCCCCCCC1=NC(C)(C)CN1CC(C)O (stereo not drawn) | 1.9 µM | 4.62 µM | 1.52 µM | 2.88 µM | 1.97 µM | 4.67 µM | 1.77 µM | 3.45 µM | 6.25 µM | 23.7 µM | 3.11 µM | 7.99 µM | 2.68 µM | 6.9 µM | 1.73 µM | 3.16 µM | 1.7 µM | 3.09 µM | 5.54 µM | 17.7 µM
COC(=O)/C(=N\NC(N)=O)C(C(=O)C(=O)Nc1ccccc1OC)c1nc2ccc([N+](=O)[O-])cc2[nH]c1=O (stereo not drawn) | – | > 100 µM | – | > 100 µM | – | > 100 µM | – | > 100 µM | – | > 100 µM | – | > 100 µM | – | > 100 µM | – | > 100 µM | – | > 100 µM | – | > 100 µM
CC[C@@H]1[C@@H](C)O[C@@](O)([C@@H](C)[C@H](O)[C@H](C)[C@H]2OC(=O)/C=C/C=C/[C@H](C)[C@@H]([C@@H](C)[C@@H](O)[C@H](C)[C@@]3(O)C[C@@H](O[C@H]4C[C@@H](O)[C@H](O)C(C)O4)[C@H](CC)[C@@H](C)O3)OC(=O)/C=C/C=C/[C@@H]2C)C[C@H]1O[C@@H]1C[C@@H](O)[C@H](O)C(C)O1 (stereo partly drawn) | 0.0798 µM | 0.253 µM | 0.0611 µM | 0.117 µM | 0.0857 µM | 0.234 µM | 0.0867 µM | 0.261 µM | 0.0655 µM | 0.139 µM | 0.0655 µM | 0.149 µM | 1.05 µM | 7.04 µM | 0.0698 µM | 0.175 µM | 0.0708 µM | 0.182 µM | 0.0731 µM | 0.212 µM
Cc1ccc(Cl)cc1Nc1nc(C(F)(F)F)ccc1C(=O)N/N=C/c1cccnc1 | 4.05 µM | 18.5 µM | 1.52 µM | 13.6 µM | 1.27 µM | 8.27 µM | 3.99 µM | 15.7 µM | 2.38 µM | 12.4 µM | 5.6 µM | 20.3 µM | 3.21 µM | 20.3 µM | 1.55 µM | 9.32 µM | 2.45 µM | 10 µM | 3.37 µM | 14.4 µM

— PubChem BioAssay (NCI)
